The values that follow come from patent publication US6424857B1, “Use of acousto-optical and sonoluminescene contrast agents” (Amersham Health AS, priority 1997, dated 2002).

This data set can be described thus: Solubility in water and sesame oil.

Turning to `Oc1ccc2ccccc2c1N=Nc1ccc(N=Nc2ccccc2)cc1` [Sudan III], the “solubility in sesame oil” value (sesame oil) is given as “soluble”. Besides, the solubility in water entry (water) is “very water insoluble”.
